Source: patent US20030113330A1, “Methods for treating pulmonary fibrosis” (priority 1999, published 2003)
Where a SMILES comes first, the peptide text is derived from it. The star is where a group is joined. Cbz = O=C(OCc1ccccc1)*; CH2F = FC*

Experiments:
A549 cells [1] = test: Angiotensin II-induced apoptosis in A549 cells (nuclear fragmentation, PI); assay type: cell-based, human; details: saralasin 50 ug/ml
Description: Cell Culture. […] J. Physiol. Suppl. (Oct.) 261:110-117 (1991) and Uhal et al., Am. J. Physiol. 269:[…]-[…] (1995). […] J. Physiol. 272:[…]-[…] (1997). […] J. Physiol. Suppl. (October) 261:110-117 (1991). […] Detection of Apoptosis. […] J. Physiol. […] Assay of Annexin V binding by flow cytometry was performed essentially as described for human lung fibroblasts in Uhal, et al., Am. J. Physiol. 275:[…]-[…] (1998) after trypsinization of cells from culture vessels. Assay of Caspase-3 activity was performed on viable suspension cultures as reported in Uhal, et al., Am. J. Physiol. 275:[…]-1017 (1998). […] For microscopy, cells were cultured on glass cover slips, incubated with test reagents and fixed with 70% ethanol. The fixed cells were immunolabeled overnight at 4° C. with monoclonal antibodies to cytokeratins 7 and 19 (Chemicon International, Temecula, Calif.), and then for one hour at 37° C. with anti-mouse IgG-rhodamine and DNAse-free RNAse (Boehringer Mannheim, Indianapolis, Ind.) The cover slips were then rinsed in distilled water three times and mounted under Fluoromount Solution (Southern Biotechnology Associates, Birmingham, Ala.) containing 5 ug/ml propidium iodide. Photomicroscopy was performed as described in Uhal, et al., Am. J. Physiol. 275:[…]-1017 (1998). […] The absolute values for basal, i.e., 0.0 dose, apoptosis were: A549 serum-free, 2.29±0.33%; […] AEC serum-free: 1.87±0.41%; and AEC+FBS: 1.97±0.37%.

adult male Wistar rats = details: for lung lesions, histology / total lung collagens by hydroxyproline assay: 14 days post-bleomycin
Description: Adult male Wistar rats were given intratracheal instillations of 8 U/kg bleomycin sulfate (BLEO) or sterile saline. […] Lung fibrosis was assessed by picrosirius red (PR) quantitation of lung collagen and by hydroxyproline (HP) assay at 14 days after BLEO administration. At the same time point, fragmented DNA in lung epithelial cells was detected by in situ end labeling (ISEL).
Animals and Induction of Pulmonary Fibrosis. Forty adult male Wistar rats, 175-200 grams, were divided into four groups; three groups received a single intratracheal instillation of 8 units per kilogram of bleomycin sulfate (BLEO) in sterile saline. Two days before the administration of BLEO, one group received captopril in the drinking water at a concentration of 500 mg/liter. […] Control animals (NORM) received administrations of the vehicles only.
Immediately before sacrifice, animals were given intraperitoneal injections of sodium pentobarbital and the trachea was cannulated. The middle right lobe was ligated at the hilus, was excised distal to the ligation and was immediately frozen in liquid N2 for hydroxyproline assay of total collagen (see below). The remaining lung tissues were carefully removed and were instilled with 4% paraformaldehyde in PBS at 20 cm H2O constant pressure, then immersed in the same fixative for two hours. The fixed tissues were washed with PBS three times for 15 minutes and were then embedded in paraffin. Five-micron sections of lung were deparaffinized by passing through xylene, xylene:alcohol 1:1, 100% alcohol and 70% alcohol for 10 minutes each. Ethanol was removing by rinsing with distilled water.
In situ end-labeling (ISEL) of fragmented DNA. ISEL was conducted by a modification of the method of Mundle et al., Cell Death and Differentiation, 1: 117-122 (1994). Briefly, ethanol was removed from deparaffinized lung sections by rinsing in distilled water for at least 10 minutes. The slides were then placed in 3% hydrogen peroxide (Sigma Chemical, St. Louis, Mo.) for 30 minutes at 20° C., rinsed with PBS, and incubated with Proteinase K (Sigma Chemical, St. Louis, Mo.) in saline sodium citrate solution (SSC) (0.3 M NaCi and 30 mM sodium citrate in water, pH 7.0) for 15 minutes at 37° C. Samples were rinsed once in water, three times in 0.15 M PBS for 4 minutes each, and then incubated in SSC at 80° C. for 20 minutes. After four rinses in PBS and four rinses in Buffer A (50 mM Tris/HCl, 5 mM MgCl, 10 mM β-mercaptoethanol and 0.005% BSA in water, pH 7.5), the sections were incubated at 18° C. for two hours with ISEL solution (0.001 mM digoxigenin-dUTP, 20 U/ml DNA Polymerase 1 and 0.01 mM each of dATP, dCTP and dGTP in Buffer A). The sections were then rinsed thoroughly five times with Buffer A and three times with PBS. Detection of incorporated dUTP was achieved by incubation for two hours at 37° C. with AP-conjugated anti-digoxigenin (Boerhinger Mannheim, Indianapolis, Ind.) at a 1:400 dilution. Bound AP-antibody complexes were detected with the Fast Blue chromogen system and the sections were mounted with Fluoromount Solution (Southern Biotechnology, Birmingham, Ala.).
Identification of Collagen. Collagens were localized through staining of lung sections by the picrosirius red technique, see Pick et al., Am. J. Pathol. 134:365-371 (1989), which has absolute specificity for collagen. Briefly, sections deparaffinized with xylenes were rehydrated through a descending series of ethanols to distilled water. The hydrated sections were immersed in 0.2% aqueous phosphomolybdic acid for 2 minutes, rinsed in distilled water and then stained for 110 minutes with 0.1% Sirius Red F3BA (Pfal and Bauer, Stamford, Conn.) in saturated aqueous picric acid, pH 2.0. The sections were washed for 2 minutes in 0.01 N HCl, rinsed for 45 seconds in 70% ethanol, dehydrated in three changes of absolute alcohol, cleared in xylene and mounted in a nonaqueous mounting medium.

[2] = tested on: primary alveolar epithelial cells (AEC); test: Bleomycin-induced apoptosis of primary AEC in vitro
Description: Lung Cell Isolation and Detection of Apoptosis In Vitro. Primary alveolar epithelial cells (AEC) were isolated from adult male Wistar rats as described above. The primary cells were studied at day two of culture, a time at which they are type II cell-like by accepted morphologic and biochemical criteria, see Paine et al., Am. J. Physiol. […] All cells were seeded in 24-well or 6-well chambers, and all experiments were conducted at subconfluent densities of 80-90% in serum-free Ham's F12 medium. Test reagents were diluted with Ham's F12 medium and were applied for 20 hours at 37° C. in a 5% CO2 incubator.
Detection of apoptotic cells with propidium iodide (PI) was conducted as described above, following digestion of ethanol-fixed cells with DNAse-free RNAse in PBS containing 5 ug/ml PI.
Apoptosis was detected as described above.

A549 cells [3] = test: FAS-induced apoptosis (activating anti-FAS antibody CH-11) in A549 cells, ISEL / nuclear fragmentation; assay type: cell-based, human; details: CH-11 200 ng/ml; lisinopril 500 ng/ml, saralasin 5 mg/ml

Row | SMILES | inhibition of ANGII-induced apoptosis of A549 cells (A549 cells [1]) | lung lesions, histology (adult male Wistar rats) | total lung collagens by hydroxyproline assay (adult male Wistar rats) | inhibition of FAS-induced apoptosis (A549 cells [3]) [%] | also measured
1 | CCc1nc2c(C)cc(C)nc2n1Cc1ccc(-c2ccccc2-c2nn[nH]n2)cc1 [L158809] | could block |  |  |  | 
2 | COc1ccc2c(c1OCc1ccccc1)C[C@@H](C(=O)O)N(C(=O)C(c1ccccc1)c1ccccc1)C2 [PD126055] | unable to significantly inhibit |  |  |  | 
3 | COC(=O)C[C@H](NC(=O)[C@H](C)NC(=O)[C@@H](NC(=O)OCc1ccccc1)C(C)C)C(=O)CF [ZVAD-fmk, N-benzylcarboxy-Val-Ala-Asp-[O-Me]-CH2F] (Cbz-Val-Ala-Asp(OMe)-CH2F) |  | much less extensive | inhibited lung collagen accumulation |  | inhibition of accumulation of lung collagens (adult male Wistar rats; captopril 500 mg/liter drinking water, ZVAD-fmk 1 mg per kg daily i.p., 14 days after BLEO): 85%; inhibition of bleomycin-induced apoptosis of AEC in vitro ([2]; bleomycin 50 uM, captopril 500 ng/ml, ZVAD-fmk 60 uM, aurintricarboxylic acid 10 uM): 78%
4 | C[C@H](CS)C(=O)N1CCC[C@H]1C(=O)O [captopril] |  | much less extensive | inhibited lung collagen accumulation |  | inhibition of ISEL labeling in AEC (adult male Wistar rats; 14 days after BLEO): 99%; inhibition of ISEL labeling in airway epithelial cells (adult male Wistar rats; 14 days after BLEO): 67%; inhibition at 0.5 µg/mL ([2]; Rattus norvegicus, Epithelial cell, read-out: inhibition of bleomycin-induced apoptosis of AEC in vitro): 76%
5 | NCCCC[C@H](N[C@@H](CCc1ccccc1)C(=O)O)C(=O)N1CCC[C@H]1C(=O)O [lisinopril] |  |  |  | 61 | 
6 | CNCC(=O)N[C@@H](CCCN=C(N)N)C(=O)N[C@H](C(=O)N[C@@H](Cc1ccc(O)cc1)C(=O)N[C@H](C(=O)N[C@@H](Cc1cnc[nH]1)C(=O)N1CCC[C@H]1C(=O)N[C@@H](C)C(=O)O)C(C)C)C(C)C [saralasin] | completely inhibited |  |  | 71 | 
